Here are results for four compounds from patent US7115566B2, “Compounds and method for the prevention and treatment of diabetic retinopathy” (University of Florida, priority 1997, dated 2006).

One data set relates to cytomegalovirus (CMV). To be noted: cited from earlier work.
Data set [1] deals with retinal neovascularization. Briefly: intravitreal IGF-1 rabbit model of retinal angiogenesis. It counts as in vivo, pigmented rabbits. To be noted: for ophthalmoscopy findings: all rabbits. How it is done:
Pigmented rabbits were selected for study after considering the ocular anatomy, animal supply and established use of the species in ophthalmology. Growth factor was injected into the vitreous of pigmented rabbits (n=30) as previously described. Briefly, rabbits were anesthetized with ketamine and xylazine and a 30 g needle was used to withdraw 80 μl of fluid from the anterior eye chamber under an operating microscope. Then a 30 g needle was used to administer 0.1 ml of balanced salt solution containing 600 μg of IGF-1 adjacent to the surface of the retina near the optic nerve head. The rabbits were placed in a supine position for 30–60 minutes to facilitate solution dispersal onto the vascularized medullary ray and disc. Control animals (n=10) received the same dose of heat-inactivated protein (IGF-I held at 100° C. for 30 min). Animals were periodically examined using indirect ophthalmoscopy, fundus photography, and fluorescein angiography from days 2 through 21.
The temporal sequence of the anatomical changes seen in the IGF 1-injected eyes is as follows. […] The fundus of control eyes remained normal in appearance. […] Numerous distended vessels with edematous endothelial cells were found on the surface of the retina along with extensive proliferation of their extracellular matrix. […] Reduplication of the basement membrane, a strong indicator of endothelial cell hyperreactivity, was a consistent finding in all IGF-1 treated eyes. Endothelial cell mitosis was validated using antibody to proliferating cell nuclear antigen. Systemic unpackaged peptide, e.g. lanreotide can be tested for its ability to inhibit IGF-1 induced neovascularization in this rabbit model.

The conditions of data set [2]: in vivo; cited from earlier work.
For data set [3] the following is noted: continuous infusion pump for 4 weeks, cited from earlier work.
The conditions of data set [4]: compared with octreotide; cited from earlier work.
The test system of data set [5] is chorioallantoic membrane of the developing chick embryo. To be noted: chick chorioallantoic membrane assay; cited from earlier work.
The next data set deals with insulin secretion. To be noted: normal physiological conditions; cited from earlier work.
For data set [6] the following is noted: after a similar dose (200 μg/kg); cited from earlier work.
The nature of data set [7]: pilot study of continuous octreotide infusion to prevent progression of diabetic retinopathy. It counts as in vivo, human.
Data set [8] deals with human retinal endothelial cells (HREC). Put plainly: proliferation and [3H] thymidine incorporation in growth factor stimulated HREC. It counts as cell-based.
Data set [9] is described as follows: octreotide in patients with severe proliferative diabetic retinopathy (Grant, 1987–1994).
The conditions of data set [10]: several months of continuous infusion; 4 patients; cited from earlier work.
[11] abbreviates: six patients, 25 to 100 μg three times a day.

Where only a bound is given, the exact number is not on record here.

Take `Nc1nc(O)c2ncn(COC(CO)CO)c2n1` [ganciclovir]: the CMV-encephalitis result in the data set on cytomegalovirus (CMV) (at autopsy) is “widespread CMV-encephalitis”. Besides, in the data set with cytomegalovirus (CMV) (verified at autopsy), the “treatment of CMV retinitis” value is “successful treatment of CMV retinitis”.

On to “IGF-1: insulin-like growth factor 1, injected intravitreally to induce retinal neovascularization”, for which the ophthalmoscopy findings entry is “hyperemia with vascular engorgement” in data set [1] (3 days after intravitreal injection of 600 μg); “Vascular tortuosity, intraretinal hemorrhage, and severe increased hyperemia surrounding the optic disc” in data set [1] (by day 7); “Fibrosis developed over the optic disc and medullary ray” in data set [1] (by day 21). The “microscopic findings on the surface of the retina” value in data set [1] (all eyes treated) is “abnormal vessels were observed on the surface of the retina”.

Regarding lanreotide, in [2], the excreted intact is above 90% and the “stability of the peptide” value is “stable”. Besides, the disease regressed in data set [3] is 2 patients. Moreover, in data set [3] (subjects who completed dosing), the disease progression halted is reported as 8 of 8. Besides, the clinical tolerance result in [4] is reported as “better tolerated than octreotide”. For the same compound, in [5], the inhibition of angiogenesis entry was “more potent in inhibiting angiogenesis compared to the natural somatostatin tetradecapeptide”. Besides, the “effect on insulin secretion” value in the data set on insulin secretion was “suppress insulin secretion”. Moreover, the “LNT levels in rat eyes” value in data set [6] was “unable to detect significant LNT levels”.

With octreotide, in data set [7] (four octreotide-treated subjects, within the first 6 months of therapy), the HgA1c entry was “normalized”. The “suppression of GH and IGF-1 levels into the hypopituitary range” value in [7] (four patients) was “not achieved in any patient”. In addition, in data set [7] (four patients, continuous infusion, doses up to 5000 μg/day), the “clinical or angiographic improvement” value is “no patient showed clear clinical or angiographic improvement”. In addition, in [7] (four patients, in at least one eye), the “progression to high risk characteristics requiring laser therapy” value is “Laser therapy was initiated in all four patients”. In addition, the visual acuity entry in [7] (patients receiving octreotide) is given as “statistically significant improvement”. Also, the “[3H] thymidine incorporation” value in data set [8] (IGF-1 and b-FGF stimulated HREC) is “dose-dependent inhibition”. Besides, in data set [8] (IGF-1 stimulated cultures), the “proliferation of HREC” value was “significantly decreased”. Moreover, in data set [8] (b-FGF stimulated cultures), the “inhibitory effect on proliferation of HREC” value is reported as 40–45%. Also, in [8] (cells grown in control medium), the cell proliferation result is recorded as “minimal effect”. Moreover, in data set [9] (all seven study patients), the HgA1c result is “reductions”, the sense of well-being entry is “improved” and the visual acuity entry is given as “improved”. Besides, in data set [9] (seventh patient), the posterior pole neovascularization entry is given as “not affected” and the “side effects leading to stopping the drug” value was “gastrointestinal side effects”. Besides, in [9] (seventh patient with severe bilateral neovascular glaucoma), the iris neovascularization result is reported as “regressed completely”. Further, in data set [9] (setting [11]), the “disease progression during treatment period” value is “None of the six patients showed disease progression” and the “regression of NVD” value was “four”. Moreover, the retinal function entry in data set [10] was “improved”.
